Data from PubChem BioAssay AID330 (DTP/NCI, 2004).
Several values for one entry are separate records, joined by “and”; a condition that tells them apart may be missing. Equal entries are not always repeated. Toxic doses and inconclusive results are not listed.

Tested on: P388 leukemia ip, CD2F1 mice, survival T/C
Test: NCI In Vivo Anticancer Drug Screen. Data for tumor model P388 Leukemia (intraperitoneal) in CD2F1 (CDF1) mice
Conditions: endpoint: median survival time, higher = longer survival
Outline: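 Mice carrying the transplanted tumor received test compound or vehicle. Survival was recorded in each group, and the value is the treated-group measurement divided by that of the vehicle-treated control group.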

[1] = dose: 100.0 mg/kg/injection, schedule: Q04DX002 (ip), vehicle: saline with Tween-80
[2] = dose: 25.0 mg/kg/injection, schedule: Q04DX002 (ip), vehicle: saline with Tween-80
[3] = dose: 50.0 mg/kg/injection, schedule: Q01DX005 (ip), vehicle: saline
[4] = dose: 100.0 mg/kg/injection, schedule: Q01DX005 (ip), vehicle: saline
[5] = dose: 200.0 mg/kg/injection, schedule: Q01DX005 (ip), vehicle: saline
[6] = dose: 12.5 mg/kg/injection, schedule: Q01DX009 (ip), vehicle: saline
[7] = dose: 25.0 mg/kg/injection, schedule: Q01DX009 (ip), vehicle: saline
[8] = dose: 50.0 mg/kg/injection, schedule: Q01DX009 (ip), vehicle: saline
[9] = dose: 50.0 mg/kg/injection, schedule: Q01DX005 (ip), vehicle: Klucel (hydroxypropylcellulose) (HPC)
[10] = dose: 100.0 mg/kg/injection, schedule: Q01DX005 (ip), vehicle: Klucel (hydroxypropylcellulose) (HPC)
[11] = dose: 200.0 mg/kg/injection, schedule: Q01DX005 (ip), vehicle: Klucel (hydroxypropylcellulose) (HPC)
[12] = dose: 25.0 mg/kg/injection, schedule: Q01DX009 (ip), vehicle: Klucel (hydroxypropylcellulose) (HPC)
[13] = dose: 50.0 mg/kg/injection, schedule: Q01DX009 (ip), vehicle: Klucel (hydroxypropylcellulose) (HPC)
[14] = dose: 100.0 mg/kg/injection, schedule: Q01DX009 (ip), vehicle: Klucel (hydroxypropylcellulose) (HPC)
[15] = dose: 12.5 mg/kg/injection, schedule: Q01DX009 (ip), vehicle: Klucel (hydroxypropylcellulose) (HPC)
[16] = dose: 100.0 mg/kg/injection, schedule: Q01DX009 (ip), vehicle: saline
[17] = dose: 200.0 mg/kg/injection, schedule: Q01DX009 (ip), vehicle: saline

SMILES: CC1=C/C(=N\SC(c2ccccc2)(c2ccccc2)c2ccccc2)CCC1
- T/C [1]: 94 % of control
- T/C (dose: 200.0 mg/kg/injection, schedule: Q04DX002 (ip), vehicle: saline with Tween-80): 95 % of control

SMILES: CSc1snc2c1c(=O)n(C)c(=O)n2C
- T/C [2]: 98 % of control
- T/C (dose: 50.0 mg/kg/injection, schedule: Q04DX002 (ip), vehicle: saline with Tween-80): 101 % of control
- T/C [1]: 99 % of control

SMILES: CCCOC(=O)/C=C(\F)C(=O)OCCC
- T/C (dose: 6.25 mg/kg/injection, schedule: Q04DX002 (ip), vehicle: saline with Tween-80): 110 % of control
- T/C (dose: 12.5 mg/kg/injection, schedule: Q04DX002 (ip), vehicle: saline with Tween-80): 116 % of control
- T/C [2]: 95 % of control

SMILES: COc1cc2cc(c1Cl)N1CCC(C)(O)C(=O)NC(C)C(=O)OC(CC1=O)C1(C)OC1C(C)C1CC(O)(NC(=O)O1)C(OC)/C=C\C=C(\C)C2OC (configuration not stated)
- T/C (dose: 4.0 micrograms/kg/injection, schedule: Q01DX009 (ip), vehicle: distilled water + alcohol): 150 % of control
- T/C (dose: 16.0 micrograms/kg/injection, schedule: Q01DX009 (ip), vehicle: distilled water + alcohol): 157 % of control
- T/C (dose: 32.0 micrograms/kg/injection, schedule: Q01DX009 (ip), vehicle: distilled water + alcohol): 150 % of control

SMILES: Cc1[nH]c2ccccc2c1CCCO
- T/C [3]: 105 % of control
- T/C [4]: 100 % of control
- T/C [5]: 105 % of control

SMILES: COc1ccc(C(NCCn2cnc3c2c(=O)n(C)c(=O)n3C)c2ccccc2)cc1 (configuration not stated)
- T/C (dose: 6.25 mg/kg/injection, schedule: Q01DX005 (ip), vehicle: alkali diluted with saline): 100 % of control
- T/C (dose: 12.5 mg/kg/injection, schedule: Q01DX005 (ip), vehicle: alkali diluted with saline): 100 % of control
- T/C (dose: 25.0 mg/kg/injection, schedule: Q01DX005 (ip), vehicle: alkali diluted with saline): 96 % of control

SMILES: C[N+](C)(C)CC(O)c1ccc(O)c(O)c1 (configuration not stated)
- T/C (dose: 6.25 mg/kg/injection, schedule: Q01DX009 (ip), vehicle: saline): 113 % of control
- T/C [6]: 100 % of control
- T/C [7]: 97 % of control
- T/C [8]: 100 % of control

SMILES: COc1ccc2ncc(COC(C)=O)c(COC(C)=O)c2c1
- T/C [9]: 99 % of control
- T/C [10]: 98 % of control
- T/C [11]: 102 % of control

SMILES: CN(C)CC1CC/C=C\C(c2ccccc2)N(C)C1c1ccccc1 (configuration not stated)
- T/C (dose: 100.0 mg/kg/injection, schedule: Q04DX003 (ip), vehicle: suspension in saline): 105 % of control
- T/C (dose: 200.0 mg/kg/injection, schedule: Q04DX003 (ip), vehicle: suspension in saline): 116 % of control
- T/C (dose: 400.0 mg/kg/injection, schedule: Q04DX003 (ip), vehicle: suspension in saline): 99 % of control

SMILES: Fc1ccc(CSc2ncnc3nc[nH]c23)cc1
- T/C (dose: 100.0 mg/kg/injection, schedule: Q01DX009 (ip), vehicle: saline with Tween-80): 90 % of control
- T/C (dose: 200.0 mg/kg/injection, schedule: Q01DX009 (ip), vehicle: saline with Tween-80): 100 % of control
- T/C (dose: 400.0 mg/kg/injection, schedule: Q01DX009 (ip), vehicle: saline with Tween-80): 100 % of control

SMILES: O=S1(=O)C=C(c2cccs2)C1
- T/C (dose: 25.0 mg/kg/injection, schedule: Q04DX003 (ip), vehicle: saline with Tween-80): 97 % of control
- T/C (dose: 50.0 mg/kg/injection, schedule: Q04DX003 (ip), vehicle: saline with Tween-80): 109 % of control
- T/C (dose: 100.0 mg/kg/injection, schedule: Q04DX003 (ip), vehicle: saline with Tween-80): 105 % of control and 112 % of control

SMILES: COC(=O)C(Cc1c[nH]c2ccccc12)NC(=O)C(Cc1cnc[nH]1)N(C(=O)OCc1ccccc1)C(=O)OCc1ccccc1 (configuration not stated)
- T/C (dose: 50.0 mg/kg/injection, schedule: Q01DX005 (ip), vehicle: saline with Tween-80): 100 % of control
- T/C (dose: 100.0 mg/kg/injection, schedule: Q01DX005 (ip), vehicle: saline with Tween-80): 89 % of control
- T/C (dose: 200.0 mg/kg/injection, schedule: Q01DX005 (ip), vehicle: saline with Tween-80): 98 % of control

SMILES: NNc1nnnc2c1sc1ccccc12
- T/C (dose: 100.0 mg/kg/injection, schedule: Q01DX001 (ip), vehicle: saline with Tween-80): 89 % of control
- T/C (dose: 400.0 mg/kg/injection, schedule: Q01DX001 (ip), vehicle: saline with Tween-80): 93 % of control

SMILES: COc1cc2c(cc1OC)/C(=N/N)CCC2
- T/C (dose: 3.13 mg/kg/injection, schedule: Q01DX009 (ip), vehicle: water): 100 % of control
- T/C (dose: 6.25 mg/kg/injection, schedule: Q01DX009 (ip), vehicle: water): 100 % of control
- T/C (dose: 12.5 mg/kg/injection, schedule: Q01DX009 (ip), vehicle: water): 95 % of control
- T/C (dose: 25.0 mg/kg/injection, schedule: Q01DX009 (ip), vehicle: water): 91 % of control
- T/C (dose: 50.0 mg/kg/injection, schedule: Q01DX009 (ip), vehicle: water): 91 % of control

SMILES: Cc1c(N=Nc2ccc(Br)cc2)c(-c2ccccc2)nn1C(N)=S
- T/C [9]: 102 % of control
- T/C [10]: 105 % of control

SMILES: O=C1NC(=O)[C@H]2C[C@H]3C(=O)NC(=O)[C@H]3[C@@H]12
- T/C [12]: 99 % of control
- T/C [13]: 101 % of control
- T/C [14]: 102 % of control and 107 % of control
- T/C (dose: 200.0 mg/kg/injection, schedule: Q01DX009 (ip), vehicle: Klucel (hydroxypropylcellulose) (HPC)): 101 % of control and 107 % of control
- T/C (dose: 400.0 mg/kg/injection, schedule: Q01DX009 (ip), vehicle: Klucel (hydroxypropylcellulose) (HPC)): 96 % of control

SMILES: CS/N=C(\c1ccccc1)N1CCOCC1
- T/C (dose: 60.0 mg/kg/injection, schedule: Q01DX005 (ip), vehicle: Klucel (hydroxypropylcellulose) (HPC)): 100 % of control
- T/C (dose: 120.0 mg/kg/injection, schedule: Q01DX005 (ip), vehicle: Klucel (hydroxypropylcellulose) (HPC)): 98 % of control

SMILES: Nc1nc2ccc(CNc3ccc(C(=O)NC(CC(=O)O)C(=O)O)cc3)cc2c(=O)[nH]1 (configuration not stated)
- T/C [15]: 100 % of control
- T/C [12]: 96 % of control
- T/C [13]: 99 % of control and 103 % of control
- T/C [14]: 116 % of control

SMILES: CC(N)C(=O)NC(CC(=O)O)C(=O)O (configuration not stated)
- T/C [6]: 95 % of control
- T/C [7]: 86 % of control
- T/C [8]: 90 % of control
- T/C [16]: 94 % of control
- T/C [17]: 92 % of control

SMILES: FS(F)(F)(F)(F)c1cccc(NC(=S)SCc2ccc(Cl)cc2)c1
- T/C [8]: 100 % of control
- T/C [16]: 101 % of control and 95 % of control
- T/C [17]: 107 % of control and 118 % of control

SMILES: CN1CCCN(C)C1c1ccccc1O
- T/C (dose: 12.5 mg/kg/injection, schedule: Q01DX009 (ip), vehicle: saline sonified): 100 % of control
- T/C (dose: 25.0 mg/kg/injection, schedule: Q01DX009 (ip), vehicle: saline sonified): 90 % of control
- T/C (dose: 50.0 mg/kg/injection, schedule: Q01DX009 (ip), vehicle: saline sonified): 100 % of control

SMILES: CN(C)CCCNC(=O)c1nn(-c2ccccc2)c2c1N(C)S(=O)(=O)c1ccccc1-2
- T/C [3]: 92 % of control
- T/C [4]: 99 % of control
- T/C [5]: 101 % of control

SMILES: O=C(O)CCN1CCCc2ccccc21
- T/C (dose: 100.0 mg/kg/injection, schedule: Q04DX003 (ip), vehicle: other): 100 % of control
- T/C (dose: 200.0 mg/kg/injection, schedule: Q04DX003 (ip), vehicle: other): 100 % of control
- T/C (dose: 400.0 mg/kg/injection, schedule: Q04DX003 (ip), vehicle: other): 109 % of control

SMILES: CCOP(=Nc1cc(C)ccc1C)(OCC)OCC
- T/C [15]: 100 % of control
- T/C [12]: 94 % of control
- T/C (dose: 50.0 mg/kg/injection, schedule: Q01DX001 (ip), vehicle: Klucel (hydroxypropylcellulose) (HPC)): 103 % of control
- T/C [13]: 103 % of control and 93 % of control
- T/C (dose: 100.0 mg/kg/injection, schedule: Q01DX001 (ip), vehicle: Klucel (hydroxypropylcellulose) (HPC)): 100 % of control
- T/C (dose: 200.0 mg/kg/injection, schedule: Q01DX001 (ip), vehicle: Klucel (hydroxypropylcellulose) (HPC)): 96 % of control

SMILES: C[C@]12CCC(=O)C(O)=C1CC[C@H]1[C@@H]3CCC(=O)[C@@]3(C)CC[C@@]12O
- T/C (dose: 12.5 mg/kg/injection, schedule: Q01DX005 (ip), vehicle: Klucel (hydroxypropylcellulose) (HPC)): 101 % of control
- T/C (dose: 25.0 mg/kg/injection, schedule: Q01DX005 (ip), vehicle: Klucel (hydroxypropylcellulose) (HPC)): 109 % of control
- T/C [9]: 104 % of control
- T/C [10]: 104 % of control
- T/C [11]: 96 % of control

SMILES: Cn1/c(=N\NC(=O)c2ccncc2)sc2ccccc21
- T/C (dose: 6.25 mg/kg/injection, schedule: Q01DX009 (ip), vehicle: Klucel (hydroxypropylcellulose) (HPC)): 110 % of control
- T/C [15]: 107 % of control
- T/C [12]: 115 % of control
